US20240287147A1, “PD-L1 BINDING PEPTIDES AND PEPTIDE COMPLEXES AND METHODS OF USE THEREOF” (Fred Hutchinson Cancer Center, priority 2020, published 2024)

System: PC3 tumors
Conditions: PC3, second cohort, T cells + 1 nmol or 0.1 nmol

durvalumab
effect on PC3 flank tumors: no effect
